Legend:
SARM1 [1] = molecular target: SARM1 (Homo sapiens, UniProt Q6SZW1); assay: biochemical
CD38 [2] = molecular target: T1, CD38 (Homo sapiens, UniProt P28907); assay: inhibition of recombinant CD38 enzyme activity (Figure S5H); type: biochemical
T1 construct: recombinant CD38 (reCD38)
T1 sequence (P28907 1-300): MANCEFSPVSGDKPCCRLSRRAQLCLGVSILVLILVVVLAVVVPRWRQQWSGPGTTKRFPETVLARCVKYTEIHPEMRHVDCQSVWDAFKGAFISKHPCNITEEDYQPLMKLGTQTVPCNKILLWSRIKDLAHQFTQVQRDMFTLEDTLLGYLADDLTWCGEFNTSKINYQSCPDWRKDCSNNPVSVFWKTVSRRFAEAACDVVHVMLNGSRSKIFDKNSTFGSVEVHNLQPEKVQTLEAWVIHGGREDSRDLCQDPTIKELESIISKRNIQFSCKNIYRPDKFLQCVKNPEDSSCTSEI

SARM1 [3] = molecular target: T2, SARM1 (Homo sapiens, UniProt Q6SZW1); assay: εNAD NADase assay and HPLC activity assays of immunopurified SARM1 (activation); dose-response in lysate; type: biochemical
T2 construct: SARM1-FLAG, immunoprecipitated; SARM1-dN (N-terminal mitochondria localization signal truncated)
T2 sequence (Q6SZW1 28-724): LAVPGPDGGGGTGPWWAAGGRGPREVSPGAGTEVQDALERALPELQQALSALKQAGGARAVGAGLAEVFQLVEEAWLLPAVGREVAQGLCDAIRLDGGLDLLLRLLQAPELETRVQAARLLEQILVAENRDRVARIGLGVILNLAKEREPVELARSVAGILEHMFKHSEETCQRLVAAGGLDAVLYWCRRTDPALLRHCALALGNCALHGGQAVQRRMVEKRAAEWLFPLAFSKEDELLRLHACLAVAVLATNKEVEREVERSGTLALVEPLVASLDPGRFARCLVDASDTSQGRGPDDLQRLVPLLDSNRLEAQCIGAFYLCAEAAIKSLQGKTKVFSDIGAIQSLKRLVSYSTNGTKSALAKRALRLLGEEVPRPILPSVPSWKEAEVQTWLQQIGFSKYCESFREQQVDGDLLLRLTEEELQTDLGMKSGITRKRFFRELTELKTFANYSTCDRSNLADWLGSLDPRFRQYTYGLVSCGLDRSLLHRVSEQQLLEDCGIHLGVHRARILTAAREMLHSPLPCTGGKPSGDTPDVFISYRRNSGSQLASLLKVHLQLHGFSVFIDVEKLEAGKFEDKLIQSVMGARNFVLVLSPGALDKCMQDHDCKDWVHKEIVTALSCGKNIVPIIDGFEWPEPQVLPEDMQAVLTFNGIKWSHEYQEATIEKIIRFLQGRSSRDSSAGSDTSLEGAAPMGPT

CD38 [4] = molecular target: T1, CD38; assay: inhibition of recombinant CD38 enzyme activity (Figure S5H); type: biochemical; remark: listed apart in the source

SMILES	EC50 (SARM1 [1])	IC50 (CD38 [2])	EC50 (SARM1 [3])	inhibition of recombinant CD38 enzyme activity (Figure S5H) (CD38 [4])
NC(=O)c1ccc[n+]([C@@H]2O[C@H](COP(O)(O)=S)[C@@H](O)[C@@H]2F)c1 [CZ-48]	~50 µM	~10 µM		
NC(=O)c1ccc[n+]([C@@H]2O[C@H](COP(=O)(O)O)[C@@H](O)[C@H]2O)c1 [NMN]			~50 µM	In contrast to SARM1, recombinant CD38 (reCD38) was inhibited by both NMN (Figure S5H) and CZ-48

— PMC6531917, “A Cell-Permeant Mimetic of NMN Activates SARM1 to Produce Cyclic ADP-Ribose and Induce Non-apoptotic Cell Death” (iScience, 2019)
